# Measurements: ChEMBL document CHEMBL1201862, “PubChem BioAssay data set” (2004)
# Activity calls are given as the source filed them.
# Assays:
# [1] = molecular target: Bcl-2-like protein 1 (Homo sapiens, UniProt Q07817); assay: blockers of BCLXL peptide binding – biochemical, fluorescence polarization, 1536-well, selectivity assay for MCL1 inhibitor project, dose response (AID 2218)
# [2] = molecular target: Induced myeloid leukemia cell differentiation protein Mcl-1 (Homo sapiens, UniProt Q07820); assay: blockers of MCL1 binding to BIM peptide – biochemical, fluorescence polarization, BIM-BH3 peptide, 1536-well, dose response (AID 2217)
# Chain of Induced myeloid leukemia cell differentiation protein Mcl-1 (Q07820 whole entry): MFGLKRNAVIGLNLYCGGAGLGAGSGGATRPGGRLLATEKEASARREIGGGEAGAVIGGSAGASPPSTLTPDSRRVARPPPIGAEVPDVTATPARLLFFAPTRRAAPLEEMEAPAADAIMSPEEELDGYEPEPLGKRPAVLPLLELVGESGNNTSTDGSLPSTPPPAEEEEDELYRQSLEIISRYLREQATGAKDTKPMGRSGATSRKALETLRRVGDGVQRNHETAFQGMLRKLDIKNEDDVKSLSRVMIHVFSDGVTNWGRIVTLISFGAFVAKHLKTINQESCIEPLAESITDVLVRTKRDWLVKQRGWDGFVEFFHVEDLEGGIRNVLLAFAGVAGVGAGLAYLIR
# [3] = molecular target: T1, Caspase-6 (Homo sapiens, UniProt P55212); assay: inhibition of CASP6 peptide cleavage – biochemical, VEID-R110 fluorescence, cherry-pick, dose response (AID 720632)
# T1 sequence (P55212 whole entry): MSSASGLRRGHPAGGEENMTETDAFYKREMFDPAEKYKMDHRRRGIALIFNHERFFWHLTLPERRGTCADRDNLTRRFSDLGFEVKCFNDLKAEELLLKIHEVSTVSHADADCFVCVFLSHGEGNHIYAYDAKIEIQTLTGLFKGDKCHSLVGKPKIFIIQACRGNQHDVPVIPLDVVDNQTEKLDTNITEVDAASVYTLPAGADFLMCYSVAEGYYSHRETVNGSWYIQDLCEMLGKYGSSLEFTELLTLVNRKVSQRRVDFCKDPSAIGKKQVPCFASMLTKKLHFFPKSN
# [4] = molecular target: Tyrosine-protein phosphatase non-receptor type 7 (Homo sapiens, UniProt P35236); assay: HePTP tyrosine phosphatase activity blockers – biochemical, absorbance, leukemia target, primary screen (AID 521); assay type: functional
# [5] = molecular target: T2, Carboxy-terminal domain RNA polymerase II polypeptide A small phosphatase 1 (Homo sapiens, UniProt Q9GZU7); assay: CTDSP1 inhibitors, concentration-response, biochemical, absorbance readout, ultra-high-throughput screen actives (AID 540297); assay type: functional
# T2 sequence (Q9GZU7 whole entry): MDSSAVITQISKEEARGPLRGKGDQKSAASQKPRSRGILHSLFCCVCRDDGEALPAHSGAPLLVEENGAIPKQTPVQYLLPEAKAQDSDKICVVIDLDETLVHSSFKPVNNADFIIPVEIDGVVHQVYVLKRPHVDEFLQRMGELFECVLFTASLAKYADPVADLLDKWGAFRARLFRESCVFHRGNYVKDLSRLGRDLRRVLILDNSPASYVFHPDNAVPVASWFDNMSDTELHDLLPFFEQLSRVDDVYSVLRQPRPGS
# [6] = molecular target: T3, Bcl-2-related protein A1 (Mus musculus, UniProt Q07440); assay: small-molecule antagonists of Bfl-1/BH3 interaction – biochemical, TR-FRET, mouse Bfl-1, confirmation (AID 621);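 further: TR-FRET binding of GST-Bfl-1 to FITC-labelled Bid peptide via terbium antibody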
# T3 sequence (Q07440 whole entry): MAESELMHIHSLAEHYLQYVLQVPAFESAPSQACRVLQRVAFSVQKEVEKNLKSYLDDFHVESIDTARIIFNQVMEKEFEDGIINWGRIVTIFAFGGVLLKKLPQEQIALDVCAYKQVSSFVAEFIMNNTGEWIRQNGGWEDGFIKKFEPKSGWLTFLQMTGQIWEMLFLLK
# [7] = molecular target: Protein-tyrosine kinase 2-beta (Homo sapiens, UniProt Q14289);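 further: potency of inhibitors of PYK2 kinase phosphorylation of poly-GT substrate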
# Chain of Protein-tyrosine kinase 2-beta (Q14289 whole entry): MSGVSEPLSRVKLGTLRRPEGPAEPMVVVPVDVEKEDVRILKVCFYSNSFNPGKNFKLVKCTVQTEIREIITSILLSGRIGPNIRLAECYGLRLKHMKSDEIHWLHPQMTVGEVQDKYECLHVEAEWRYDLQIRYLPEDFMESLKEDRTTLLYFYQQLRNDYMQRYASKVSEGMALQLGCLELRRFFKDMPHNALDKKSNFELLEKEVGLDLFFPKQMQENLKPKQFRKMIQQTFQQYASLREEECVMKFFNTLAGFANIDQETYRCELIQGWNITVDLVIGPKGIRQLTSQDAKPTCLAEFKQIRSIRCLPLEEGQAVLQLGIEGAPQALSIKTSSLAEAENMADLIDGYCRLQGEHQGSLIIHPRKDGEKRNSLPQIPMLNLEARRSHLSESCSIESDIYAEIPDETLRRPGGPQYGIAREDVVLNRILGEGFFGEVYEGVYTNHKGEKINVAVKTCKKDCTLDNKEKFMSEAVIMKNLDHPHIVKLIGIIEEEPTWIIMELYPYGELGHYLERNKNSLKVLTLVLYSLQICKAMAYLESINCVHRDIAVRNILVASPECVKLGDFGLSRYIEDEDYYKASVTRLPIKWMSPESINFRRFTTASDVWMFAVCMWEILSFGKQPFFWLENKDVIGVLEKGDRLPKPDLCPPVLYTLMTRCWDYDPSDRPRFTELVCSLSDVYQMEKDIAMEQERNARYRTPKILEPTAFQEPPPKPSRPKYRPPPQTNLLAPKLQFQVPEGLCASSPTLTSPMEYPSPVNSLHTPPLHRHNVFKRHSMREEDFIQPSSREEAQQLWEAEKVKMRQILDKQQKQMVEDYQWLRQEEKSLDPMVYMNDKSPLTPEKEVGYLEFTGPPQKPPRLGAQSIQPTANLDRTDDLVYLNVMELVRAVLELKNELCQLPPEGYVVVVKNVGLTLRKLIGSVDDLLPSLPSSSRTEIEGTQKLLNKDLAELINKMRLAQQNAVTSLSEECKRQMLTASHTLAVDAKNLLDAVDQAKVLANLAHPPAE
# [8] = molecular target: Dual specificity protein phosphatase 6 (Rattus norvegicus, UniProt Q64346); assay: inhibition of rat DUSP6 enzyme activity – biochemical, in vitro, primary screen (AID 425)
# Chain of Dual specificity protein phosphatase 6 (Q64346 whole entry): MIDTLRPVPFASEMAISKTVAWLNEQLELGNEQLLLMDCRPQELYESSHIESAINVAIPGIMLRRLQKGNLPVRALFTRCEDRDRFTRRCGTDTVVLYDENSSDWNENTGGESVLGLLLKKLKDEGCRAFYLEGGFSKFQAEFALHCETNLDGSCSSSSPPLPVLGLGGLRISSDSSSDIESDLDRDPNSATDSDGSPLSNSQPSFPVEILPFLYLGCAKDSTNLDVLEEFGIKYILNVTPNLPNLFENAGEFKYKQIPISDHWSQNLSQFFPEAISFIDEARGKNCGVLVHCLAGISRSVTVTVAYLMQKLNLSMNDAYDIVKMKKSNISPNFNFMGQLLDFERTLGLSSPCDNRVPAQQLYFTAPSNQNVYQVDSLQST
# [9] = molecular target: T3, Bcl-2-related protein A1; assay: displacement of Bid BH3 peptide from Bfl-1 – biochemical, fluorescence polarization, FITC-Bid, mouse, primary screen (AID 432)
# [10] = molecular target: Disintegrin and metalloproteinase domain-containing protein 17 (Homo sapiens, UniProt P78536); assay: inhibition of ADAM17 substrate cleavage – biochemical, quenched FRET substrate, counter-screen for ADAM10 exosite inhibitor project, dose response (AID 743253)
# Chain of Disintegrin and metalloproteinase domain-containing protein 17 (P78536 whole entry, the tested form may be a part): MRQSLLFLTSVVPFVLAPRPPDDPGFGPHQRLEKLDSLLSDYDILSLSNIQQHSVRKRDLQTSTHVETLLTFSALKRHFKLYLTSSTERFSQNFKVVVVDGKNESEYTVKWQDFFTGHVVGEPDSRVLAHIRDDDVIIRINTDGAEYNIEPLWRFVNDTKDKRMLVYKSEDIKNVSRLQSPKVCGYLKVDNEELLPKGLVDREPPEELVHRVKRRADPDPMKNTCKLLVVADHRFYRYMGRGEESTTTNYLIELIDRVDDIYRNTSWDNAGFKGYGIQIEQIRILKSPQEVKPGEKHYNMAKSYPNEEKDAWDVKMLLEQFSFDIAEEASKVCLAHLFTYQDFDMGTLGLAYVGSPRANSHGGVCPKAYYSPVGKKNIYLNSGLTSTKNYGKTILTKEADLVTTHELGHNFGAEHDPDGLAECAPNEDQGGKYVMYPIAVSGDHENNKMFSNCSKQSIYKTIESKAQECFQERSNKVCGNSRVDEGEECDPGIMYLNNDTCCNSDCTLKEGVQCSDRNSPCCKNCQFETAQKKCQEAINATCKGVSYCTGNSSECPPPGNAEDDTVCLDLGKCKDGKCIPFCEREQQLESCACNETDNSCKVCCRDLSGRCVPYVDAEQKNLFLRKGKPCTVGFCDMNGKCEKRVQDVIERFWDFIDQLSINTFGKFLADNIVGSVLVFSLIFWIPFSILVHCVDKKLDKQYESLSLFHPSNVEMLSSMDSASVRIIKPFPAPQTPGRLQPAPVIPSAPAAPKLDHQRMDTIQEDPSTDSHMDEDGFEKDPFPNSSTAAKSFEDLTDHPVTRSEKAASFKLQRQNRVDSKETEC
# [11] = potency of ADAM10 substrate cleavage blockers – biochemical, QFRET, dose response (AID 743254);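 further: ADAM10 enzyme with the DM2 quenched FRET peptide as substrate; EDANS fluorescence gain as the protease cuts the substrate; inhibitor potency against ADAM10 proteolytic activity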
# [12] = A High Throughput Confirmatory Assay used to Identify Novel Compounds that Inhibit Mycobacterium Tuberculosis in the absence of Glycerol.; assay type: functional
# [13] = cells; assay type: functional
# [14] = molecular target: 5-hydroxytryptamine receptor 1E (Homo sapiens, UniProt P28566); assay: Counterscreen assay for S1P3 antagonists: Dose response cell-based high throughput screening assay to identify antagonists of the 5-Hydroxytryptamine Receptor Subtype 1E (5HT1E). [Related pubchem assays: 1429, 485 ]; assay type: functional
# Chain of 5-hydroxytryptamine receptor 1E (P28566 whole entry): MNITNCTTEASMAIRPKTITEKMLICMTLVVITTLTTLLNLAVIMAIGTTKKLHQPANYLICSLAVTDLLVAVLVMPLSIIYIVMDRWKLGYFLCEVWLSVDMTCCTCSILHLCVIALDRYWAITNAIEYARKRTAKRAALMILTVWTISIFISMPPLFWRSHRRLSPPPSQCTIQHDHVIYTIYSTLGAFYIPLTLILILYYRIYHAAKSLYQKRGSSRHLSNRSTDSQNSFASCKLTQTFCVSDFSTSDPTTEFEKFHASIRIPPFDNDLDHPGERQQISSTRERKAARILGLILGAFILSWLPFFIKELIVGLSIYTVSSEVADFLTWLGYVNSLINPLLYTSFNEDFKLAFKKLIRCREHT
# [15] = molecular target: T4, Sphingosine 1-phosphate receptor 3 (Homo sapiens, UniProt Q99500); assay: Dose response cell-based high throughput screening assay for antagonists of the Sphingosine 1-Phosphate Receptor 3 (S1P3). [Related pubchem assays: 1429, 485 ]; assay type: functional
# T4 sequence (Q99500 whole entry): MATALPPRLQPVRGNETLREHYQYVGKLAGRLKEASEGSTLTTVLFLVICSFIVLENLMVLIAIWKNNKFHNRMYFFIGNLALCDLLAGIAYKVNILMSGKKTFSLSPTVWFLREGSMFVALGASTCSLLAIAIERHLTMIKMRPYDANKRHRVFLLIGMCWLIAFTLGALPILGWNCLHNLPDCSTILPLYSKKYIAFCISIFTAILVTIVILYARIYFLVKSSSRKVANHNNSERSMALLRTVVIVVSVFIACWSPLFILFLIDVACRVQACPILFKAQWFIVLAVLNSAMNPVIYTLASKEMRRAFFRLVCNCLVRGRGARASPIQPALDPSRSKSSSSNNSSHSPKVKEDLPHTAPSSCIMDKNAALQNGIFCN
# [16] = Luminescence Cell-Based Dose Confirmation HTS to Identify Inhibitors of Polyadenylation.; assay type: functional
# [17] = molecular target: T5, Replicative DNA helicase DnaB (Mycobacterium tuberculosis, UniProt P9WMR3); assay: DnaB intein splicing inhibitors, dose response, biochemical, cell-free fluorescence (AID 449749); assay type: functional
# T5 sequence (P9WMR3 whole entry): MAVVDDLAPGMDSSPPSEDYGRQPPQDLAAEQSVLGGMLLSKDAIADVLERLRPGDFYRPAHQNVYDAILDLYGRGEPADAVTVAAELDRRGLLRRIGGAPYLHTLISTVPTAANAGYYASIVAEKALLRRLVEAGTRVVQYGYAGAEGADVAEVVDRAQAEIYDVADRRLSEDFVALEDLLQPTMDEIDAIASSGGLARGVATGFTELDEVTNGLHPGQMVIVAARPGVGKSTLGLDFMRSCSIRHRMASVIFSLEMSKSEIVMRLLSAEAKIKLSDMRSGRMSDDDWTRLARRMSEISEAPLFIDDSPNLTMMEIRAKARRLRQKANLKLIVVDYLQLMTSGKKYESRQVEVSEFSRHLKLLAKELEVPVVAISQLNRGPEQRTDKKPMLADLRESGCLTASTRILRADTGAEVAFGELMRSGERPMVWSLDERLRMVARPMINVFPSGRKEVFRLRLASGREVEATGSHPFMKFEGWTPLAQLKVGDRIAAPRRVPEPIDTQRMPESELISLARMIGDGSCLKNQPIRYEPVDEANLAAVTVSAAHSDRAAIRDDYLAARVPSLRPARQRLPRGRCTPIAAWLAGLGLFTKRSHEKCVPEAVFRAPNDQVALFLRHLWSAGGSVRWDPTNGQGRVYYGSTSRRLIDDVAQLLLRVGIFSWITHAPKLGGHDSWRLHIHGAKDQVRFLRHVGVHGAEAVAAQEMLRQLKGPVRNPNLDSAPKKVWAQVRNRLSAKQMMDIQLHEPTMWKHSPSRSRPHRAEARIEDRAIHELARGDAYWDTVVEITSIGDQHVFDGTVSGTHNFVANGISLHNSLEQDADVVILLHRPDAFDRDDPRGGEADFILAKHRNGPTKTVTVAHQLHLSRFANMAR
# [18] = molecular target: T6, Mannose-6-phosphate isomerase (Homo sapiens, UniProt P34949); assay: MPI enzyme activity inhibition – biochemical, fluorescence intensity, coupled assay, primary screen (AID 1209)
# T6 sequence (P34949 whole entry): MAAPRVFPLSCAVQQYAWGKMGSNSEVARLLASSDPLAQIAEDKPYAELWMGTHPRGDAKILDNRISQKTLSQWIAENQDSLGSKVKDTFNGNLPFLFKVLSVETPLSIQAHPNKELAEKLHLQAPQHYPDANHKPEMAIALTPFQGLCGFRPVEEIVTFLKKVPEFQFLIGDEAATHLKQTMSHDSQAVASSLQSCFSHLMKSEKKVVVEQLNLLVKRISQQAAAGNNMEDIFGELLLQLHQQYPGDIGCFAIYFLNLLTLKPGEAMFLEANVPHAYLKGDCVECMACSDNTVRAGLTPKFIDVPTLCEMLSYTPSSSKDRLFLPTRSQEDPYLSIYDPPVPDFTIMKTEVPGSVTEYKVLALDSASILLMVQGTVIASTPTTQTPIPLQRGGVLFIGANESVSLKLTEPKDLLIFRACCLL
# [19] = molecular target: T6, Mannose-6-phosphate isomerase; assay: MPI inhibition at elevated mannose 6-phosphate – biochemical, fluorescence intensity, high mannose 6-phosphate, primary screen (AID 1220)
# [20] = THP-1 cell cytotoxicity, dose response, cytotoxicity control for non-replicating M. tuberculosis project (AID 489025); assay type: functional
# [21] = molecular target: T7, Protein RecA (Mycobacterium tuberculosis, UniProt P9WHJ3); assay: Fluorescence Cell-Free Homogeneous Dose Retest to Identify Inhibitors of RecA-Intein Splicing Activity. [Related pubchem assays (depositor defined):AID2097, AID2223, AID489010, AID492950]; assay type: functional
# T7 sequence (P9WHJ3 whole entry): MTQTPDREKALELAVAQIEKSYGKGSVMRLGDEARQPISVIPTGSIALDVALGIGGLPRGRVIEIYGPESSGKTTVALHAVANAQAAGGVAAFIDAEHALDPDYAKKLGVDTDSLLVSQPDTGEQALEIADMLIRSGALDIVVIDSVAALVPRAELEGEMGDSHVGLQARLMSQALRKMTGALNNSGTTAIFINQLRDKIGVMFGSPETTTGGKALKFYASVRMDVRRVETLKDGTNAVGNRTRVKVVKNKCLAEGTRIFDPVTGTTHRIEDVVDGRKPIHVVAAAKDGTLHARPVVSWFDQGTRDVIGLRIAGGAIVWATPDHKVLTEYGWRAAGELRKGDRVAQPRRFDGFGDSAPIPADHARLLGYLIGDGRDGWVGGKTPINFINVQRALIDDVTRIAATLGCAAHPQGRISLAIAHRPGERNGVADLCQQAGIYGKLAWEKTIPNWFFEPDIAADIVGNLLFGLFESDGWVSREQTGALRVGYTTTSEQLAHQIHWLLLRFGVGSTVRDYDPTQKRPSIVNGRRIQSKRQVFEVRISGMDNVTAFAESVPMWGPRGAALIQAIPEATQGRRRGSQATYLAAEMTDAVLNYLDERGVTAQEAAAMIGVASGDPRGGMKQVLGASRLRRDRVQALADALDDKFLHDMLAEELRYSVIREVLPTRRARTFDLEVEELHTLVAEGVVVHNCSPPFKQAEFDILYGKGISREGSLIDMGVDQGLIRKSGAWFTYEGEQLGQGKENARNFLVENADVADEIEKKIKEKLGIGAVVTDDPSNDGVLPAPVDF
# [22] = molecular target: T8, Bcl-2-like protein 10 (Homo sapiens, UniProt Q9HD36); assay: Bcl-B/TR3 peptide binding disruption – biochemical, fluorescence polarization, FITC-TR3 peptide, selectivity assay for Bfl-1 inhibitor project, primary screen (AID 748);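 further: fluorescence polarization from a fluorescein-labelled TR3 peptide binding purified Bcl-B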
# T8 sequence (Q9HD36 whole entry): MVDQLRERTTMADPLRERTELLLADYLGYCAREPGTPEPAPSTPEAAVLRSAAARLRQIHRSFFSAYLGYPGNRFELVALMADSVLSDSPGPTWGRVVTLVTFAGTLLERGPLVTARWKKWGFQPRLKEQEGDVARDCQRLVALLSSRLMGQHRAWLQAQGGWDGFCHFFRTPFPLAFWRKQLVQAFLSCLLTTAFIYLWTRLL
# [23] = molecular target: T9, Estrogen receptor (Homo sapiens, UniProt P03372);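 further: potency for inhibiting coactivator peptide recruitment to the receptor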
# T9 sequence (P03372 whole entry): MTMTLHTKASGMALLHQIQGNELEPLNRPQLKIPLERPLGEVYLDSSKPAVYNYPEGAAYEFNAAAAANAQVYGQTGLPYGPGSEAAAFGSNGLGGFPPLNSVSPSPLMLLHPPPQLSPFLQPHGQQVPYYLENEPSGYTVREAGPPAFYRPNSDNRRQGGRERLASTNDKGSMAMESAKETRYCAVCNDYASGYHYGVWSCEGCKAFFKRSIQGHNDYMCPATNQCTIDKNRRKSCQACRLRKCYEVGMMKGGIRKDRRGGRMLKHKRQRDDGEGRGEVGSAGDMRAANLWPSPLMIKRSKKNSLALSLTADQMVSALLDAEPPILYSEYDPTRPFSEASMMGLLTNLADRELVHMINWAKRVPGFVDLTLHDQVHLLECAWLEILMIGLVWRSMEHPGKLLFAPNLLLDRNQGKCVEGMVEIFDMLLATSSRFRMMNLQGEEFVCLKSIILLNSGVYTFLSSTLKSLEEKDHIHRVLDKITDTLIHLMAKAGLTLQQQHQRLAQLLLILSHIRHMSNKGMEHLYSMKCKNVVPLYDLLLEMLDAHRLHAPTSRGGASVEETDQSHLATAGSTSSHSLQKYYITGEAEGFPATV
# [24] = molecular target: T10, Estrogen receptor beta (Homo sapiens, UniProt Q92731); assay: blockers of SRC-3 recruitment to ERβ – biochemical, ELISA, streptavidin-HRP readout, orthogonal assay, confirmation (AID 1060)
# T10 sequence (Q92731 whole entry): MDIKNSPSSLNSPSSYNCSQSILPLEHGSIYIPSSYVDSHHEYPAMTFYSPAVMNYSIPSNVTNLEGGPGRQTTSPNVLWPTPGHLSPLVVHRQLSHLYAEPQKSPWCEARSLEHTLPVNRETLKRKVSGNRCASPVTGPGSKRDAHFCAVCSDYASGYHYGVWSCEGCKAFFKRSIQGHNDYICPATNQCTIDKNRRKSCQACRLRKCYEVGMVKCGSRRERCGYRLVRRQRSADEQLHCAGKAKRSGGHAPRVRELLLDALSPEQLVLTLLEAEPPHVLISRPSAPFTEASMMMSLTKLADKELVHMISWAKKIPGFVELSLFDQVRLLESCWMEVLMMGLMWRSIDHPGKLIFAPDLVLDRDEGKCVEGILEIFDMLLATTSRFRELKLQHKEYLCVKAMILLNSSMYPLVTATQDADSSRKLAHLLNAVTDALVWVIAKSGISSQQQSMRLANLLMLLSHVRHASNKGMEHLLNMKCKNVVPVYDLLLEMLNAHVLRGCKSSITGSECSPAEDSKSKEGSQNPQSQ
# [25] = molecular target: T10, Estrogen receptor beta
# [26] = molecular target: Sphingosine 1-phosphate receptor 2 (Homo sapiens, UniProt O95136); assay: Dose Response Cell-Based Assay for Agonists of the Sphingosine 1-Phosphate Receptor 2 (S1P2): Purchased Analogues. [Related pubchem assays: 1192, 373, 439 ]; assay type: functional
# [27] = molecular target: Sphingosine 1-phosphate receptor 1 (Homo sapiens, UniProt P21453); assay: Dose Response Cell-Based Assay for Agonists of the Sphingosine 1-Phosphate Receptor 1 (S1P1): Purchased Analogues. [Related pubchem assays: 1192, 373, 439 ]; assay type: functional
# Chain of Sphingosine 1-phosphate receptor 1 (P21453 whole entry): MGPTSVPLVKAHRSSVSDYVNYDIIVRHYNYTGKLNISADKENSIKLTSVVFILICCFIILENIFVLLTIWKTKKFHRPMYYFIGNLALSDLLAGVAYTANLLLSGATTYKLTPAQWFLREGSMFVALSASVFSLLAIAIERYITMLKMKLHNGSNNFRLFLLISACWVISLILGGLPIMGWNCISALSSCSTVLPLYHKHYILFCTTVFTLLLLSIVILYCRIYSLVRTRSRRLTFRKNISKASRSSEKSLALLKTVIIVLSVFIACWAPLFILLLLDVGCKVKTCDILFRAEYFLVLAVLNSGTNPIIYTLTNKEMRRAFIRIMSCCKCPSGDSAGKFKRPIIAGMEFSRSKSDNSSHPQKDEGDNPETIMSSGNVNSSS
# [28] = molecular target: T4, Sphingosine 1-phosphate receptor 3; assay: Dose Response Cell-Based Assay for Agonists of the Sphingosine 1-Phosphate Receptor 3 (S1P3): Purchased Analogues. [Related pubchem assays: 373, 439 ]; assay type: functional
# Chain of Bcl-2-like protein 1 (Q07817 whole entry): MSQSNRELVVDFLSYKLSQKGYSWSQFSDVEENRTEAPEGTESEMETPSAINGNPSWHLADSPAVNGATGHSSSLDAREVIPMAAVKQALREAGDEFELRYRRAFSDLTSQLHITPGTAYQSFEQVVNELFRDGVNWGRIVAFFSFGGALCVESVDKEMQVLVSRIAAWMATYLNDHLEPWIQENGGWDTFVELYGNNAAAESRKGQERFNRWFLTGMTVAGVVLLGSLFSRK
smiles,measurement,setting,value
Nc1ccc(S(=O)(=O)Nc2nc3ccccc3o2)cc1,IC50,[1],> 109 µM (not active)
same,IC50,[2],> 109 µM (not active)
same,AC50,[3],42.1 µM (active)
COc1ccc2nc(O)c(-c3noc(-c4ccccc4)n3)cc2c1,IC50,[4],4.23 µM (active)
same,IC50,[5],7.01 µM (active)
same,IC50,[6],> 100 µM (not active)
same,IC50,[7],> 2.57 µM (not active)
same,IC50,[8],> 10 µM (not active)
same,IC50,[9],24.6 µM (active)
Cc1cccc(OCC(=O)NNC(=O)c2cc3ccccc3oc2=O)c1,IC50,[10],> 69.5 µM (inactive)
same,IC50,[11],> 69.5 µM (inactive)
same,IC50,[12],> 100 µM (active)
same,IC50,[13],19.4 µM (active)
C=CCN1CCN(C(c2ccc(Cl)cc2)c2nnnn2CCc2ccc(OC)c(OC)c2)CC1 (stereo not drawn),IC50,[14],> 50 µM (not active)
same,IC50,[15],> 50 µM (not active)
COc1ccc(C2SCC(=O)N2c2c(C)n(C)n(-c3ccccc3)c2=O)cc1OC (stereo not drawn),EC50,[16],> 120 µM (not active)
O=Cc1ccnc(-c2ccc(OC(=O)c3ccco3)cc2)n1,AC50,[17],5.71 µM (active)
same,IC50,[18],7.4 µM (active)
same,IC50,[19],6.56 µM (active)
same,CC50,[20],> 40 µM (active)
same,EC50,[21],16.8 µM (active)
Cc1ccc(S(=O)(=O)N2CCCCC2)cc1C(=O)Nc1nc[nH]n1,IC50,[22],27.7 µM (active)
same,IC50,[23],> 50 µM (not active)
same,IC50,[24],> 109 µM (not active)
same,IC50,[25],8.84 µM (active)
Cc1ccc(-c2cc(C(=O)N(C)C3CCCCC3)no2)cc1,EC50,[26],> 10 µM (not active)
same,EC50,[27],0.724 µM (active)
same,EC50,[28],> 50 µM (not active)
